Source: US9776964B2, “Phenoxyethyl cyclic amine derivatives and their activity as EP4 receptor modulators” (Eli Lilly and Company, priority 2013, dated 2017)
Where a name gives a salt, the structure may show the parent alone.

Columns and labels:
human EP1 = target: T1, human EP1 (Homo sapiens, UniProt P34995); experiment: In vitro binding to human EP1 ([3H]-PGE2 displacement, membranes); settings: HEK293 membranes, n = 1, read-out: hEP1, Ki
T1 construct: expressed in transfected cells
T1 sequence (P34995 1-402): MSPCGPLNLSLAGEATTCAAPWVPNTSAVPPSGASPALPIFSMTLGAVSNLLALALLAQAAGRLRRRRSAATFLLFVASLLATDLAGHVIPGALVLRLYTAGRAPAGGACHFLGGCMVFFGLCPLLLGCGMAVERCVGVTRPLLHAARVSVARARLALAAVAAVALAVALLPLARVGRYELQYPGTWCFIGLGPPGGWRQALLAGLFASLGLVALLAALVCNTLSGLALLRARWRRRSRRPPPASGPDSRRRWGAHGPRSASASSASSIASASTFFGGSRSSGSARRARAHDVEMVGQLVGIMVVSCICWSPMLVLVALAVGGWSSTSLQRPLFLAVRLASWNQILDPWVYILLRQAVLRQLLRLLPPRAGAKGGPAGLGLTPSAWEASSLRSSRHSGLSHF
Procedure: (§1) hEP1 and hEP4 membranes are prepared from recombinant HEK293 cells stably expressing human EP1 (Genbank accession number AY275470) or EP4 (Genbank accession number AY429109) receptors. hEP2 and hEP3 membranes are prepared from HEK293 cells transiently transfected with EP2 (Genbank accession number AY275471) or EP3 (isoform VI: Genbank accession number AY429108) receptor plasmids. Frozen cell pellets are homogenized in homogenization buffer using a Teflon/glass homogenizer. Membrane protein is aliquoted and quick frozen on dry ice prior to storage at −80° C. […]
(§2) Kd values for [3H]-PGE2 binding to each receptor are determined by saturation binding studies or homologous competition. […] Nonspecific binding is calculated by comparing binding in the presence and absence of 2 μM of PGE2. The membranes are harvested by filtration (TomTek harvester), washed 4 times with cold buffer (10 mM MES pH 6.0 with KOH, 10 mM MgCl2), dried in a 60° C. oven, and the radioactivity is quantified as counts per minute (CPM) using a TopCount detector. Percent specific binding is calculated as the percent of the binding in the absence of any inhibitor, corrected for binding in the presence of 2 uM of PGE2. […] Results are expressed as the geometric mean±standard deviation; n=number of independent determinations. The standard deviation is calculated by the delta method, being SDlog Ki×geometric mean×ln(10).

human EP2 = target: T2, human EP2 (Homo sapiens, UniProt P43116); experiment: In vitro binding to human EP2 ([3H]-PGE2 displacement, membranes); settings: HEK293 membranes, n = 1, read-out: hEP2, Ki
T2 construct: expressed in transfected cells; host or cells: HEK293 (transient)
Procedure: as §1, §2

human EP3 (isoform VI) = target: T3, human EP3 (isoform VI) (Homo sapiens, UniProt P43115); experiment: In vitro binding to human EP3 ([3H]-PGE2 displacement, membranes)
T3 sequence (P43115 1-359): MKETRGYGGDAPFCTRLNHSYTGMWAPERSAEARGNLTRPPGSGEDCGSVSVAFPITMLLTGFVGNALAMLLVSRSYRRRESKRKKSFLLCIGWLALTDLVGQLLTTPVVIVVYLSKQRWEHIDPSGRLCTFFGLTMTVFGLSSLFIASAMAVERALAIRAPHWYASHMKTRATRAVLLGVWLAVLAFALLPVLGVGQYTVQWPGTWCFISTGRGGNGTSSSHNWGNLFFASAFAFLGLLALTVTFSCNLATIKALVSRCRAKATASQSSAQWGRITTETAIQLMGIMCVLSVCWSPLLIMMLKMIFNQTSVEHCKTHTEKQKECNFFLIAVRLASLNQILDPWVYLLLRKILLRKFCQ
Procedure: as §1, §2

human EP4 [1] = target: T4, human EP4 (Homo sapiens, UniProt P35408); experiment: In vitro binding to human EP4 ([3H]-PGE2 displacement, membranes); parameters: expressed in transfected cells; settings: HEK293 membranes, geometric mean ± SD, n = 6, read-out: hEP4, Ki
Procedure: as §1, §2

human EP4 [2] = target: T4, human EP4; experiment: In vitro human EP4 functional antagonist activity (inhibition of PGE2-stimulated cAMP production, HTRF); assay type: cell-based; parameters: expressed in transfected cells; settings: HEK293 cells expressing human EP4, EC80 of PGE2 (0.188 nM); geometric mean ± SD, n=6; read-out: IC50 measured at human EP4 (PGE2-stimulated cAMP production)
Procedure: Assays are conducted in recombinant HEK293 cells stably expressing human EP4 receptor. The cell lines are maintained by culturing in DMEM with high glucose and pyridoxine hydrochloride (Invitrogen) supplemented with 10% fetal bovine serum (FBS), 1 mM sodium pyruvate, 10 mM HEPES, […] and 2 mM L-glutamine. Confluent cultures are grown at 37° C. in an atmosphere containing 5% CO2. Cells are harvested using 2.5% Trypsin-EDTA, suspended in freeze media (FBS with 6% DMSO) at 10^7 cells/mL and aliquots are stored in liquid nitrogen. Just before assay, cells are thawed in DMEM, centrifuged, and resuspended in cAMP buffer.
The inhibition of PGE2-stimulated cAMP production by EP4 antagonists is measured using HTRF; (Cisbio catalog #62AM4PEB). […] The HTRF signal is detected using an EnVision® plate reader (Perkin-Elmer) to calculate the ratio of fluorescence at 665 nm to 620 nm. […] Results are expressed as the geometric mean±standard deviation; n=number of independent determinations. The standard deviation is calculated by the delta method, being SDlog Ki×geometric mean×ln(10).

human EP4 [3] = target: T4, human EP4; experiment: In vitro antagonist activity in human whole blood (reversal of PGE2 inhibition of LPS-induced TNFα production); assay type: cell-based; parameters: Blood is collected from normal volunteer donors into sodium heparin vacutainer tubes; from tissue; host or cells: human whole blood from volunteer donors; settings: 10 μg/mL LPS + 10 nM PGE2, 20-24 hours, geometric mean ± SD, n=6, read-out: IC50 in human blood TNFα induction assay
Source text: The inhibitory effects of PGE2 on LPS-induced TNFα production from macrophages/monocytes are believed to be mediated by EP4 receptors (See Murase, A., et al., Life Sciences, 82:226-232 (2008)). The ability of the compound of Example 8 to reverse the inhibitory effect of PGE2 on LPS-induced TNFα production in human whole blood is an indicia of functional activity.
Blood is collected from normal volunteer donors into sodium heparin vacutainer tubes. Donors have not taken NSAIDs or celecoxib within 48 hours or glucocorticoids within two weeks of the donation. All tubes/donor are pooled into 50 mL Falcon conical centrifuge tubes and 98 μL/well is distributed into 96-well tissue culture plates (Falcon 3072). […] TNFα levels in 2 μL plasma are quantified by a commercially available enzyme immunoassay (R&D Systems DY210), using Immulon 4 HBX plates (Thermo 3855) and 3,3′,5,5′ tetramethylbiphenyl-4,4′-diamine substrate (KPL 50-76-03). The plates are read at A450-A650 on a plate reader (Molecular Devices Versamax) using SOFTmaxPRO (v. 4.3.1) software. IC50s are calculated using Graphpad Prism (v. 4) nonlinear regression, sigmoidal dose response curve fitting. Results are expressed as the geometric mean±standard deviation; n=number of independent determinations The standard deviation is calculated by the delta method, being SDlog Ki×geometric mean×ln(10).

T4 sequence (P35408 whole entry): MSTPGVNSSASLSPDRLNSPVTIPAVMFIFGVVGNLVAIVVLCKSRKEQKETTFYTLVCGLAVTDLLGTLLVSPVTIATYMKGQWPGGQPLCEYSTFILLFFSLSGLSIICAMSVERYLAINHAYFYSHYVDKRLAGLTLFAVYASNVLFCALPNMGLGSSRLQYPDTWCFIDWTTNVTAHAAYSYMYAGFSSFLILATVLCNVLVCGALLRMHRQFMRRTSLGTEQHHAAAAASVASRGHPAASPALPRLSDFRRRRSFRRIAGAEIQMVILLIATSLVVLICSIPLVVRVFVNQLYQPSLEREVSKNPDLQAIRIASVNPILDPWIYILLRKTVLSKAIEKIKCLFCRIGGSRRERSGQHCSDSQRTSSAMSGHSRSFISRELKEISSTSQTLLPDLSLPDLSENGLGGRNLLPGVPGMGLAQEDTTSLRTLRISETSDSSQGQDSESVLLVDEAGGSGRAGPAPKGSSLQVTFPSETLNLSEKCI
T2 sequence (P43116 whole entry): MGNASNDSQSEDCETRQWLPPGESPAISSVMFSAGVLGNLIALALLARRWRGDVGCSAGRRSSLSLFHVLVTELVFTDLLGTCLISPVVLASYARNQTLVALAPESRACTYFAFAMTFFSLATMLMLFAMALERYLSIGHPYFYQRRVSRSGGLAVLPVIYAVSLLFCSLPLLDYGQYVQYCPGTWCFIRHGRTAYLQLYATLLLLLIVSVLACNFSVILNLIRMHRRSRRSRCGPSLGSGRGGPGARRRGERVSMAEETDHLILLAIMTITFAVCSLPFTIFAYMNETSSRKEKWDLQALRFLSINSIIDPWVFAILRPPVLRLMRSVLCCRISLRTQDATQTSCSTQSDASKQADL

C[C@H](NC(=O)[C@H]1CC(F)(F)CCN1CCOc1ccccc1)c1ccc(C(=O)O)cc1 [Example 8, 4-((1S)-1-(((2R)-1-(2-phenoxyethyl)-4,4-difluoropiperidin-2-carbonyl)amino)ethyl)benzoic acid hydrochloride]
Ki (human EP1): > 12500 nM | Ki (human EP2): 956 nM | Ki (human EP3 (isoform VI)): > 14800 nM | Ki (human EP4 [1]): 3.68 ± 3.32 nM | IC50 (human EP4 [2]): 1.76 ± 1.51 nM | IC50 (human EP4 [3]): 78.2 ± 61 nM
